{
  "source": "patent US9510596B2",
  "about": "“Binary pesticidal and fungicidal mixtures” (BAYER CROPSCIENCE AG, priority 2012, dated 2016)",
  "test_system": "Phakopsora pachyrhizi",
  "assay": "Phakopsora test (soybean)/seed treatment",
  "format": "in vivo",
  "conditions": "greenhouse, infected leaf area per plant",
  "experimental": "The test is performed under greenhouse conditions.\nSoy bean seeds, treated with the active compound or compound combinations, solved in N-methyl-2-pyrrolidon and diluted with water to the desired dosages, were sown in 6*6 cm pots containing 4 cm of a 1:1 mix of steamed field soil and sand.\nThe plants were grown at 22° C. and 90% relative humidity in a greenhouse chamber. 21 days old plants were inoculated with an aqueous spore suspension of the causal agent of soybean rust (Phakopsora pachyrhizi) and stay for 24 h without light in an incubation cabinet at approximately 24° C. and a relative atmospheric humidity of 95%. The plants remain in the incubation cabinet at approximately 24° C. and a relative atmospheric humidity of approximately 80% and a day/night interval of 12 h.\nAssessment consisted of evaluation of infected leaf area per plant. 0% means an efficacy which corresponds to that of the control, while an efficacy of 100% means that no disease is observed.",
  "data": [
    {"compound": "CNC(=O)c1cc(C#N)cc(C)c1NC(=O)c1cc(Br)nn1-c1ncccc1Cl", "note": "[2.2, Cyantraniliprole, reference compound]", "values": [
      {"measurement": "Efficacy in % found*", "setting": "application rate 0.5 ppm a.i.", "value": 0, "unit": "%"}
    ]},
    {"compound": "CNC(=O)c1cc(C#N)cc(C)c1NC(=O)c1cc(Cn2nnc(C(F)(F)F)n2)nn1-c1ncccc1Cl", "note": "[2.5, 1-(3-chloropyridin-2-yl)-N-[4-cyano-2-methyl-6-(methylcarbamoyl)phenyl]-3-{[5-(trifluoromethyl)-2H-tetrazol-2-yl]methyl}-1H-pyrazole-5-carboxamide]", "values": [
      {"measurement": "Efficacy in % found*", "setting": "application rate 2.5 ppm a.i.", "value": 13, "unit": "%"}
    ]},
    {"compound": "CC1CC(C)(C)c2cccc(NC(=O)c3cn(C)nc3C(F)F)c21", "note": "(stereo not drawn) [(I-1), 3-(difluoromethyl)-1-methyl-N-(1,1,3-trimethyl-2,3-dihydro-1H-inden-4-yl)-1H-pyrazole-4-carboxamide]", "values": [
      {"measurement": "Efficacy in % found*", "setting": "application rate 25 ppm a.i., 0% = control, 100% = no disease", "value": 25, "unit": "%"}
    ]}
  ]
}
